Measured values published in PubChem BioAssay AID1963854 (Molecular Pharmacology Branch, DTP, NCI, 2024).
pIC50: −log10 of the molar value. Where “and” joins values, the source holds several entries; their conditions need not be identical. Equal values may be shown once.

System: 186277-243-T-J2-PDC complex spheroid viability
Assay: Anticancer human tumor 186277-243-T-J2-PDC patient-derived colon adenocarcinoma cell line growth inhibition [POLQ]
Details: for viability, T/C: stronger effect = lower value
Protocol: Multicellular complex tumor spheroid response to Polymerase (POL) inhibitors (novobiocin, ART-558, RP6685) in combination with a variety of drugs and investigational agents in selected tumor cell lines
The POL inhibitors (novobiocin, ART-558, and RP6685) were evaluated both individually and in combination with standard of care and investigational anticancer small molecules within a complex spheroid model of solid tumors. . Complex spheroids include a stromal component modeled by human endothelial cells (HUVEC) and fibroblasts modeled by human mesenchymal stem cells (MSCs). The concentration ranges selected for each drug and investigational agent were based upon clinically achievable concentrations if the clinical Cmax of the agent was known.
Compounds. The drugs and investigational agents: novobiocin (NSC847541), ART-558 (NSC835418), RP-6685 (NSC848927), peposertib (NSC802822), ceralasertib (NSC780249), elimusertib (NSC800525), camonsertib (NSC841442), AZD-1390 (NSC803789), olaparib (NSC753686), talazoparib (NSC767125), rucaparib (NSC756644), sotorasib (NSC818433), MRTX-1133 (NSC836407), SN-38 (NSC673596), topotecan (NSC609699), epotoside (NSC141540), doxorubicin (NSC123127), gemcitabine (NSC613327), 5-fluorouracil (NSC19893), paclitaxel (NSC125973), vemurafenib (NSC761431), MSA-2 (NSC828583), SN-011 (NSC837082), adavosertib (NSC754352), prexasertib (NSC758257), carboplatin (NSC241240) and oxaliplatin (NSC266046), were obtained from the National Cancer Institute (NCI) Developmental Therapeutics Program Chemical Repository (21). The FDA-approved anticancer drug set is available from the Developmental Therapeutics Program at https://dtp.cancer.gov/organization/dscb/obtaining/. […] The stock solutions were prepared in dimethyl sulfoxide (DMSO, Sigma-Aldrich, St. Louis, MO, cat. D2650), except for the platinum compounds which were prepared in saline (Quality Biological, Gaithersburg, MD, cat. 114-055-101), at 800-fold the tested concentration and stored at -70 degrees C prior to their use. All drugs and investigational agents were tested over a range starting from a high concentration at or near the clinical Cmax and decreasing in half-log increments. If the clinical Cmax for an agent had not been determined, the highest concentration tested was 10 microM, except for SN-38, which was tested at a high concentration of 1 microM.
Cell Culture. All cells were maintained in an incubator at 37 degrees C and 5% CO2 with 95% humidity. The PDC lines were cultured according to standard operating procedures established by the NCI PDMR (https://pdmr.cancer.gov). Table 3 of the manuscript, lists the cell lines along with the number of the three cell types plated to form the mct-spheroids and media for tumor cell growth. After thawing, all PDC lines, except 997537-175-T-J1-PDC and 415267-285-R-J2-PDC, were cultured in Matrigel-coated flasks prepared with a working solution of 1X Ham's F-12 nutrient mix, without supplementation (Thermo Fisher Scientific, cat. 11765054), 100 U/mL penicillin-streptomycin (Thermo Fisher Scientific, cat. 15140122), and 2.5% Matrigel (Corning Inc., Corning, NY, cat. 354248) for the first three passages. The two PDC lines 997537-175-T-J1-PDC and 415267-285-R-J2-PDC were cultured on uncoated flasks. The 857933-349-R-J2-PDC line was cultured in 6C/Colon 1B media containing advanced DMEM/F-12 (Thermo Fisher Scientific, cat. 12634028), 10 mM HEPES (Thermo Fisher Scientific, cat. 15630080), 1X GlutaMAX supplement (Thermo Fisher Scientific, cat. 35050061), 0.1 mg/mL primocin (InvivoGen, San Diego, CA, cat. ant-pm-2), 10% defined fetal bovine serum, heat inactivated (HyClone Laboratories Inc., Logan, UT, cat. SH30070.03HI), 50% L-WRN conditioned media (ATCC, cat. CRL-3276), 1.25 mM N-Acetyl-L-cysteine (Sigma-Aldrich, cat. A9165), 10 mM nicotinamide (Sigma-Aldrich, cat. N0636), 1X B-27 supplement (Thermo Fisher Scientific, cat. 17504044), 1X N-2 supplement (Thermo Fisher Scientific, cat. […]
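Note: spheroids exposed to compounds for seven days.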
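Throughout, for viability, T/C: 100% = DMSO vehicle control viability.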

O=C(Nc1ccc(O)c(NS(=O)(=O)c2ccc(F)cc2)c1)c1ccc(-c2ccccc2)cc1 + COC1C(OC(N)=O)C(O)C(Oc2ccc3c(O)c(NC(=O)c4ccc(O)c(CC=C(C)C)c4)c(=O)oc3c2C)OC1(C)C
pIC50 (curve of first compound, second compound 0.0316 µM): < 5.00
pIC50 (curve of first compound, second compound 0.1 µM): < 5.00
pIC50 (curve of first compound, second compound 0.316 µM): < 5.00
pIC50 (curve of first compound, second compound 1 µM): < 5.00
pIC50 (curve of first compound, second compound 3.16 µM): < 5.00
pIC50 (curve of first compound, second compound 10 µM): < 5.00
viability, T/C (second compound 0.0316 µM, first compound 0.0316 µM): 89%
viability, T/C (second compound 0.0316 µM, first compound 0.1 µM): 113%
viability, T/C (second compound 0.0316 µM, first compound 0.316 µM): 107%
viability, T/C (second compound 0.0316 µM, first compound 1 µM): 99%
viability, T/C (second compound 0.0316 µM, first compound 3.16 µM): 105%
viability, T/C (second compound 0.0316 µM, first compound 10 µM): 94.3%
viability, T/C (second compound 0.1 µM, first compound 0.0316 µM): 107%
viability, T/C (second compound 0.1 µM, first compound 0.1 µM): 105%
viability, T/C (second compound 0.1 µM, first compound 0.316 µM): 102%
viability, T/C (second compound 0.1 µM, first compound 1 µM): 98.2%
viability, T/C (second compound 0.1 µM, first compound 3.16 µM): 107%
viability, T/C (second compound 0.1 µM, first compound 10 µM): 93.1%
viability, T/C (second compound 0.316 µM, first compound 0.0316 µM): 96.2%
viability, T/C (second compound 0.316 µM, first compound 0.1 µM): 104%
viability, T/C (second compound 0.316 µM, first compound 0.316 µM): 116%
viability, T/C (second compound 0.316 µM, first compound 1 µM): 104%
viability, T/C (second compound 0.316 µM, first compound 3.16 µM): 119%
viability, T/C (second compound 0.316 µM, first compound 10 µM): 96%
viability, T/C (second compound 1 µM, first compound 0.0316 µM): 90.8%
viability, T/C (second compound 1 µM, first compound 0.1 µM): 101%
viability, T/C (second compound 1 µM, first compound 0.316 µM): 116%
viability, T/C (second compound 1 µM, first compound 1 µM): 95%
viability, T/C (second compound 1 µM, first compound 3.16 µM): 125%
viability, T/C (second compound 1 µM, first compound 10 µM): 99.4%
viability, T/C (second compound 3.16 µM, first compound 0.0316 µM): 90.1%
viability, T/C (second compound 3.16 µM, first compound 0.1 µM): 103%
viability, T/C (second compound 3.16 µM, first compound 0.316 µM): 111%
viability, T/C (second compound 3.16 µM, first compound 1 µM): 103%
viability, T/C (second compound 3.16 µM, first compound 3.16 µM): 105%
viability, T/C (second compound 3.16 µM, first compound 10 µM): 91.5%
viability, T/C (second compound 10 µM, first compound 0.0316 µM): 91.9%
viability, T/C (second compound 10 µM, first compound 0.1 µM): 111%
viability, T/C (second compound 10 µM, first compound 0.316 µM): 103%
viability, T/C (second compound 10 µM, first compound 1 µM): 103%
viability, T/C (second compound 10 µM, first compound 3.16 µM): 108%
viability, T/C (second compound 10 µM, first compound 10 µM): 101%

COc1ccc([C@@H](O)c2cc(-c3ncnc4cc(N5CCOCC5)ccc34)c(F)cc2Cl)nn1
viability, T/C (compound 0.0316 µM): 113% and 93.8% and 106%
viability, T/C (compound 0.1 µM): 98% and 93.7% and 97.8%
viability, T/C (compound 0.316 µM): 86.5% and 101% and 97.7%
viability, T/C (compound 1 µM): 98.4% and 104% (2×)
viability, T/C (compound 3.16 µM): 80.8% and 96.9% and 74.1%
viability, T/C (compound 10 µM): 31.1% and 61% and 30.1%
pIC50 (curve of compound): 5.19 and < 5.00 and 5.23

C#Cc1c(F)ccc2cc(O)cc(-c3ncc4c(N5CC6CCC(C5)N6)nc(OCC56CCCN5CC(F)C6)nc4c3F)c12 (stereo unspecified)
viability, T/C (compound 0.0316 µM): 85.1% and 95.6% and 68.7%
viability, T/C (compound 0.1 µM): 53.8% and 92.9% and 36.9%
viability, T/C (compound 0.316 µM): 20.1% and 56% and 19.9%
viability, T/C (compound 1 µM): 12% and 28% and 9.47%
viability, T/C (compound 3.16 µM): 7.06% and 18.8% and 5.67%
viability, T/C (compound 10 µM): 5.14% and 11.6% and 4.6%
pIC50 (curve of compound): 6.95 and 6.37 and 7.20
